Patent US7408039B2, “Kits for treatment of hematologic disorders” (The General Hospital Corporation, priority 1997, dated 2008)

Columns and labels:
[1] = tested on: refractory non-Hodgkin's lymphoma; conditions: five patients; Cy 50 mg/kg daily x4
From the text: Median patient age was 30 (range 20-45) years. All patients had disease progression during salvage chemotherapy or radiation therapy.

[2] = cited from earlier work

O=P1(N(CCCl)CCCl)NCCCO1 (centres unmarked) [cyclophosphamide]
patients with reversible Cy cardiotoxicity [1]: 1 n | post-chemotherapy hematopoietic recovery ([2]; 200 mg/kg, expected, following drug administration): approximately 2 weeks | patients developing diffuse maculopapular rash ([2]; 24-72 hours following cyclophosphamide): 10-20% | patients with some hematuria ([2]; at this dose level (50 mg/kg x 4)): Approximately 50% | incidence of hemorrhagic cystitis ([2]; cyclophosphamide 50 mg/kg on days -6 to -3): 20% | myeloablation ([2]; dose of 200 mg/kg): not myeloablative | time for rash to resolve ([2]; in vivo): 24 to 48 h | total dose at which fatal cardiac failure due to hemorrhagic necrosis can occur ([2]; total dose (7.6 grams/m^2)): ≥ 200 mg/kg
